# Tests used:
# Type in all cases: in vivo, rat
# [1] = system: MIA model of osteoarthritis in rats; assay: Monosodium iodoacetate (MIA) model of osteoarthritis pain; settings: 3, 10 and 30 mg/kg orally; one hour after dosing; FIG. 2
# Source text: Injection of monosodium iodoacetate (MIA) into a joint (Kalbhen, 1987) inhibits the activity of glyceraldehyde-3-phosphate dehydrogenase in chondrocytes, resulting in disruption of glycolysis and eventually in cell death. The progressive loss of chondrocytes results in histological and morphological changes of the articular cartilage, closely resembling those seen in osteoarthritis patients.
# The osteoarthritis was induced in 200 g male Sprague Dawley rats. […]
# Typically during disease progression, there was an inflammation period of 0-7 days post-intra-articular injection followed by progressive degeneration of the cartilage and subchondral bone from days 14-55. […] Tactile allodynia was measured via von Frey assay, hind limb paw weight distribution was monitored using an incapacitence tester (Columbus Instruments, Columbus, Ohio, USA) and hind limb grip strength was measured using a grip strength meter (Columbus Instruments, Columbus, Ohio, USA). […] Hind paw weight distribution was determined by placing rats in a chamber so that each hind paw rests on a separate force plate of the incapacitence tester. The force exerted by each hind limb (measured in grams) is averaged over a 3 second period. Three measurements were taken for each rat, and the change in hind paw weight distribution calculated. […]
# [2] = system: paclitaxel-induced allodynia in Sprague Dawley rats; assay: Paclitaxel-induced allodynia; settings: 10 mg/kg orally
# Experimental: Therapy however is often associated with the unwanted side affects of painful peripheral neuropathy.
# Male Sprague Dawley rats [200-250 g](Harlan Laboratories Inc., Livermore, Calif.) were housed three per cage and maintained in a humidity-controlled (40-60%) and temperature-controlled (68-72° F.) facility on a 12 h: 12 h light/dark cycle (lights on at 6:30 am) with free access to food (Harlan Teklad, Orange, Calif., Rodent Diet 8604) and water. Rats were allowed one week of habituation to the animal facility before starting treatment.
# Rats were treated intraperitoneally, with 2 mg/kg of paclitaxel (Sigma Aldrich, Saint Louis, Mo.) in 10% Cremophor vehicle (500 μL) on days 0, 2, 4, and 6.
# Tactile allodynia was tested using von Frey filaments. Briefly, the von Frey assay was performed using the standardized up down method with von Frey filaments, that determine the tactile sensitivity of the paw. By applying the increasingly or decreasingly thicker filaments to the paw in a logarithmic scale of actual force, a linear scale of perceived intensity is determined.
# Eight days after the start of paclitaxel dosing, a baseline measurement (von Frey assay) was performed prior to dosing of compounds. […] As a positive control, rats were dosed intraperitoneally with 100 mg/kg gabapentin in water. The dosing volume for oral and peritoneal treatment was 500 μL. […]
# [3] = system: FCA-induced hyperalgesia in rats; assay: FCA-induced hyperalgesia model of inflammatory pain; settings: 0.1, 1, 3, 10 and 30 mg/kg orally; 1 h post dosing; Analgesy-Meter; FIG. 1
# Experimental: Male Sprague Dawley rats from Harlan (200-225 g when received) were used. Upon arrival, rats were housed 4 per cage in shoe-box polycarbonate cages with wire tops, wood chip bedding and suspended food and water bottles. Animals were acclimated for 5-7 days prior to being injected with Freund's complete adjuvant (FCA) (Sigma; catalog #5881).
# 2 days (48 h) before testing compounds, baseline readings of all rats were taken right before FCA injection. Rats were then injected with 50 μL FCA containing 1 mg/mL Mtb (Mycobacterium tuberculosis) in right hind footpad under inhalation anesthesia (isoflurane). 48 hours after FCA injection, readings were taken as pre-dosing baseline and then rats were dosed orally with 0.5 mL of vehicle or compound (0.5 mL per 250 g rat). Readings were taken again at 1 h post dosing. All readings were taken with an Analgesy-Meter (Ugo Basile) which measures mechanical hyperalgesia via paw pressure.
# FCA-induced hyperalgesia was tested with an Analgesy-Meter. Briefly, the Analgesy Meter applied an increasing pressure to the right hind paw. The paw withdrawal threshold was the pressure leading to withdrawal.
# Meanwhile a group of rats were dosed orally with 50 mg/kg of Diclofenac as a positive control. Readings were taken again at 1 h post dosing. Dosing volume was 500 μL per 250 g rat.
smiles,measurement,setting,value
"CC(C)(CO)NC(=O)c1nn(-c2ccc(F)cc2F)c2c1C[C@H]1C[C@@H]21 [Compound 493, (1aR,5aR)-2-(2,4-Difluoro-phenyl)-1a,2,5,5a-tetrahydro-1H-2,3-diaza-cyclopropa[a]pentalene-4-carboxylic Acid (2-Hydroxy-1,1-dimethyl-ethyl)-amide]",Increase in paw withdrawal threshold (PWT) in comparison with vehicle,[1],exhibiting therapeutic efficacy
same,time of maximum efficacy post-dosing,[2]; time course,1 h
same,increase in paw withdrawal threshold (PWT) in comparison with vehicle and gabapentin,"[2]; von Frey 30, 60 and 180 minutes after dosing, FIG. 3",exhibiting therapeutic efficacy
same,increase in paw withdrawal threshold (PWT) in comparison with the vehicle,[3],exhibited therapeutic efficacy

# — patent US9492447B2, “Cannabinoid receptor modulators” (Arena Pharmaceuticals, Inc., priority 2011, dated 2016)
